Test results published in patent publication US20240092779A1, “USP1 INHIBITORS AND USES THEREOF” (Zentaur Therapeutics USA Inc., priority 2022, published 2024).
≈ marks a conversion by molar mass, not a printed value.

Key:
[1] = Liver microsomal stability (HLM); assay type: in vitro ADME; conditions: human liver microsomes 0.5 mg/mL, 1 μM compound, NADPH; for microsomal CLint at 1 μM: human, liver microsomes
Description: Liver Microsomal Stability
Certain Compounds of the Disclosure were assessed for ADME metabolic stability in human liver microsomes (HLM).
Samples were prepared by adding 222.5 μL of a master solution (100 mM phosphate buffer and 0.5 mg/mL liver microsomes (HLM)) and 25 μL of a 10 mM NADPH solution to incubation plates, which were then warmed for 10 min. Each compound was separately dissolved in DMSO to prepare 10 mM stock solutions, which were then diluted to 100 μM with acetonitrile. A reaction was started by adding 2.5 μL of the […] solution of each compound to separate incubation plates such that the final concentration of for each compound in each plate was 1 μM. Aliquots of 30 μL were taken from the reaction solution at 0.5, 5, 15, 30 and 60 minutes. The reaction was stopped by the addition of 5 volumes of cold acetonitrile with IS (100 nM alprazolam, 200 nM caffeine and 100 nM tolbutamide). Aliquot of 100 μL of the supernatant was diluted by 100 μL ultra-pure water, and the mixture was used for LC/MS/MS analysis. Peak areas were determined from extracted ion chromatograms. […]. The percentage of remaining parent was calculated from peak area of test compound or PC. The slope value, k, is determined by linear regression of the natural logarithm of percent parent remaining vs. incubation time curve. All calculations are carried out using Microsoft Excel.
The in vitro half-life (in vitro t1/2) is determined from the slope value:
Conversion of the in vitro t1/2 (in min) into the in vitro intrinsic clearance (in vitro CLint, (HLM Clint (μL/min/mg proteins))) is done using the following equation: […]
A: HLM Clint <10 μL/min/mg; B: 10 μL/min/mg≤HLM Clint <50 μL/min/mg; C: HLM Clint ≥50 μL/min/mg.

[2] = Solubility in FaSSIF (Fasted State Simulated Intestinal Fluid); assay type: physicochemical; conditions: FaSSIF pH 6.5, 25° C.; for solubility at 2 h: kinetic from dmso stock
Description: Solubility in FaSSIF (Fasted State Simulated Intestinal Fluid)
Certain Compounds of the Disclosure were assessed for the apparent solubility in FaSSIF.
0.420 g of NaOH, 3.438 g of NaH2PO4 and 6.186 g of NaCl were dissolved into about 900 mL ultrapure water. The solution was adjusted to the pH of 6.5 with 1N NaOH or 1N HCl. The solution was then diluted with ultrapure water to 1000 mL at room temperature. The resulting solution is used as buffer solution.
2.240 g of FaSSIF Powder was added to about 500 mL of above-mentioned buffer solution. The solution was stirred until powder was completely dissolved. Then the solution was diluted with buffer A to 1000 mL at room temperature. This solution is FaSSIF to be used in the following experiment.
15 μL of stock solution (10 mM) of each sample was placed into their proper 96-well rack. 485 μL of FaSSIF was added into each vial of the cap-less solubility sample plate. One stir stick was added to each vial and the vial was sealed using a molded PTFE/Silicone plug. The solubility sample plate was transferred to the Eppendorf Thermomixer Comfort plate shaker and shaked at 25° C. at 1100 RPM for 2 hours. After completion of the 2 hours, the stir sticks using a big magnet were removed. The samples from the solubility sample plate were transferred into the filter plate. Using the vacuum manifold, all the samples are filtered. Aliquot of 5 μL was taken from filtrate followed by addition of 5 μL DMSO and 490 μL of a mixture of H2O and acetonitrile containing internal standard (1:1).
3 μM Standards solution (STD) was prepared from the 10 mM DMSO STD plate.as following: transferring 6 μL into the remaining empty plate, adding 194 μL of DMSO to that plate to have a STD concentration of 300 μM. From the 300 μM DMSO STD plate, 5 μL solution was transferred into the remaining empty plate. Addition of 5 μL PBS and 490 μL of a mixture of H2O and acetonitrile containing internal standard (1:1) to that plate furnished a final STD concentration of 3 μM STD solution.
The samples are analyzed and quantified against the standard of known concentration using LC/MS/MS, calculating the solubility of the test compound as following (DF means the dilution factor):
[Sample solubility in FsSSIF (04)]=Area Ratio sample×DF sample×[STD]/Area Ratio STD

| Structure (SMILES) | microsomal CLint at 1 μM [1] | solubility at 2 h [2] | HLM Clint (μL/min/mg) [1] | Solubility in FaSSIF(μM) ([2]; 2 hours) |
| --- | --- | --- | --- | --- |
| COc1ncnc(C2CC2)c1-c1ncc2cc(-c3cnn(CCN(C)C)c3)c(=O)n(Cc3ccc(-c4nc(C(F)(F)F)cn4C4CC4)cc3)c2n1 [Compound I-132] | 10 to 50 µL/min/mg | ≥ 100 µM |  |  |
| COc1ncnc(C2CC2)c1-c1ncc2ccc(=O)n(Cc3ccc(-n4nc(C(F)(F)F)cc4OC)cc3)c2n1 [Compound I-110] | < 10 µL/min/mg | < 10 µM |  |  |
| COc1ncnc(C2CC2)c1-c1nc(C)c2ccc(=O)n(Cc3ccc(-c4nc(C(F)(F)F)cn4C4CC4)cc3)c2n1 [Compound I-135] | < 10 µL/min/mg | ≥ 100 µM |  |  |
| COc1cc(Cn2c(=O)ccc3cnc(-c4c(OC)ncnc4OC)nc32)cc(F)c1-c1nc(C(F)(F)F)cn1C(C)C [Compound I-113] | 10 to 50 µL/min/mg | 10 to 100 µM (≈ 6 to 60 µg/mL) |  |  |
| COc1ncnc(C2CC2)c1-c1ncc2cc(-c3cn(C)c(C)n3)c(=O)n(Cc3ccc(-c4nc(C(F)(F)F)cn4C4CC4)cc3)c2n1 [Compound I-144] | 10 to 50 µL/min/mg | < 10 µM |  |  |
| COc1ncnc(C2CC2)c1-c1ncc2cc(-c3cnn(C)c3)c(=O)n(Cc3ccc(-c4nc(C(F)(F)F)cn4C)cc3)c2n1 [Compound I-64] | < 10 µL/min/mg | < 10 µM |  |  |
| COc1ncnc(C2CC2)c1-c1ncc2nc(N3CCN(C)CC3)c(=O)n(Cc3ccc(-c4nc(C(F)(F)F)cn4C4CC4)cc3)c2n1 [Compound I-97] | 10 to 50 µL/min/mg | ≥ 100 µM |  |  |
| COc1ncnc(C2CC2)c1-c1ncc2ccc(=O)n(Cc3ccc(-n4nc(C(F)(F)F)cc4C)cc3)c2n1 [Compound I-8, 2-(4-cyclopropyl-6-methoxypyrimidin-5-yl)-8-({4-[5-methyl-3-(trifluoromethyl)pyrazol-1-yl]phenyl}methyl)pyrido[2,3-d]pyrimidin-7-one] | 10 to 50 µL/min/mg | ≥ 100 µM |  |  |
| COc1ncnc(C2CC2)c1-c1ncc2cc(C3=CCN(C)CC3)c(=O)n(Cc3ccc(-c4nc(C(F)(F)F)cn4C(C)C)cc3)c2n1 [Compound I-106] | < 10 µL/min/mg | ≥ 100 µM |  |  |
| COc1cc(Cn2c(=O)ccc3cnc(-c4c(OC)ncnc4C4CC4)nc32)ccc1-n1nc(C(F)(F)F)cc1OC [Compound I-122] | < 10 µL/min/mg | 10 to 100 µM (≈ 5.8 to 58 µg/mL) |  |  |
| COc1cc(Cn2c(=O)ccc3cnc(-c4c(OC)ncnc4C4CC4)c(F)c32)ccc1-c1nc(C(F)(F)F)cn1C1CC1 [Compound I-126] | 10 to 50 µL/min/mg | 10 to 100 µM (≈ 6.07 to 60.7 µg/mL) |  |  |
| COc1cc(Cn2c(=O)ccc3cnc(-c4c(OC)ncnc4C4CC4)nc32)cc(F)c1-c1nc(C(F)(F)F)cn1C1CC1 [Compound I-53] | 10 to 50 µL/min/mg | ≥ 100 µM |  |  |
| COCCN1CCC(c2cc3cnc(-c4c(OC)ncnc4C4CC4)nc3n(Cc3ccc(-c4nc(C(F)(F)F)cn4C4CC4)cc3)c2=O)CC1 [Compound I-120] | < 10 µL/min/mg | ≥ 100 µM |  |  |
| COc1cc(Cn2c(=O)cnc3cnc(-c4c(OC)ncnc4C4CC4)nc32)ccc1-c1nc(C(F)(F)F)cn1C(C)C [Compound I-118] | 10 to 50 µL/min/mg | ≥ 100 µM |  |  |
| COc1cc(Cn2c(=O)cnc3cnc(-c4c(OC)ncnc4C4CC4)nc32)ccc1-c1nc(C(F)(F)F)cn1C(C)C [Compound I-119] |  |  | A (HLM Clint <10 μL/min/mg) | C (Solubility ≥100 μN) |
| COc1cc(Cn2c(=O)cnc3cnc(-c4c(OC)ncnc4C4CC4)nc32)cc(F)c1-c1nc(C(F)(F)F)cn1C(C)C [Compound I-107] | < 10 µL/min/mg | ≥ 100 µM |  |  |
| COc1ncnc(C2CC2)c1-c1ncc2ccc(=O)n(Cc3ccc(-c4nc(C(F)(F)F)cn4C(C)C)cc3)c2n1 [Compound I-4, 2-(4-Cyclopropyl-6-Methoxypyrimidin-5-Yl)-8-({4-[1-Isopropyl-4-(Trifluoromethyl)Imidazol-2-Yl]Phenyl}Methyl)Pyrido[2,3-d]Pyrimidin-7-One] | < 10 µL/min/mg | < 10 µM |  |  |
| COc1ncnc(OC)c1-c1ncc2ccc(=O)n(Cc3ccc(-c4nc(C(F)(F)F)cn4C4CC4)cc3)c2n1 [Compound I-102] | 10 to 50 µL/min/mg | ≥ 100 µM |  |  |
| COc1ncnc(C2CC2)c1-c1ncc2cc(-c3cccnc3)c(=O)n(Cc3ccc(-c4nc(C(F)(F)F)cn4C4CC4)cc3)c2n1 [Compound I-139] | < 10 µL/min/mg | ≥ 100 µM |  |  |
| COc1cc(Cn2c(=O)cnc3cnc(-c4c(OC)ncnc4C4CC4)nc32)ccc1-c1nc(C(F)(F)F)cn1C1CC1 [Compound I-125] | 10 to 50 µL/min/mg | ≥ 100 µM |  |  |
| COc1ncnc(C2CC2)c1-c1ncc2cc(-c3cnn(C4CN(C)C4)c3)c(=O)n(Cc3ccc(-c4nc(C(F)(F)F)cn4C4CC4)cc3)c2n1 [Compound I-137] | 10 to 50 µL/min/mg | ≥ 100 µM |  |  |
| O=c1ccc2cnc(-c3c(OC(F)F)ncnc3C3CC3)nc2n1Cc1ccc(-c2nc(C(F)(F)F)cn2C2CC2)cc1 [Compound I-103] | < 10 µL/min/mg | < 10 µM |  |  |
| COc1ncnc(C2CC2)c1-c1ncc2ccc(=O)n(Cc3ccc(-c4nc(C(F)(F)F)cn4C(C)C)c(F)c3OC)c2n1 [Compound I-23, 2-(4-cyclopropyl-6-methoxypyrimidin-5-yl)-8-({3-fluoro-4-[1-isopropyl-4-(trifluoromethyl)imidazol-2-yl]-2-methoxyphenyl}methyl)pyrido[2,3-d]pyrimidin-7-one] | 10 to 50 µL/min/mg | < 10 µM |  |  |
| COc1ncnc(C2CC2)c1-c1ncc2cc(-c3cnn(C)c3)c(=O)n(Cc3ccc(-c4nc(C(F)(F)F)cn4C(C)C)cc3)c2n1 [Compound I-138] | < 10 µL/min/mg | ≥ 100 µM |  |  |
| COc1ncnc(C2CC2)c1-c1ncc2cc(-c3cnn(CCO)c3)c(=O)n(Cc3ccc(-c4nc(C(F)(F)F)cn4C4CC4)cc3)c2n1 [Compound I-131] | < 10 µL/min/mg | ≥ 100 µM |  |  |
| COc1ncnc(C2CC2)c1-c1ncc2cc(-c3cnc(C)nc3)c(=O)n(Cc3ccc(-c4nc(C(F)(F)F)cn4C4CC4)cc3)c2n1 [Compound I-140] | < 10 µL/min/mg | ≥ 100 µM |  |  |
| COc1ncnc(C2CC2)c1-c1ncc2cc(-c3c(C)nn(C)c3C)c(=O)n(Cc3ccc(-c4nc(C(F)(F)F)cn4C4CC4)cc3)c2n1 [Compound I-129] | 10 to 50 µL/min/mg | ≥ 100 µM |  |  |
